Data taken from patent publication US20030162777A1, “Novel N-acylated heterocycles” (Recordati S.A., priority 2001, published 2003).

target: T1, human 5HT1A-serotonergic receptor (Homo sapiens, UniProt P08908); assay: Radioligand binding to recombinant 5-HT1A receptors; conditions: [3H]8-OH-DPAT 1 nM, membranes of HeLa cells with human 5-HT1A receptor; Ki from IC50 by Cheng & Prusoff; read-out: Binding affinity for 5HT1A receptors, Ki
T1 construct: expressed in transfected cells; host or cells: HeLa (human cell line), stably transfected; cell membranes used
T1 sequence (P08908 1-422): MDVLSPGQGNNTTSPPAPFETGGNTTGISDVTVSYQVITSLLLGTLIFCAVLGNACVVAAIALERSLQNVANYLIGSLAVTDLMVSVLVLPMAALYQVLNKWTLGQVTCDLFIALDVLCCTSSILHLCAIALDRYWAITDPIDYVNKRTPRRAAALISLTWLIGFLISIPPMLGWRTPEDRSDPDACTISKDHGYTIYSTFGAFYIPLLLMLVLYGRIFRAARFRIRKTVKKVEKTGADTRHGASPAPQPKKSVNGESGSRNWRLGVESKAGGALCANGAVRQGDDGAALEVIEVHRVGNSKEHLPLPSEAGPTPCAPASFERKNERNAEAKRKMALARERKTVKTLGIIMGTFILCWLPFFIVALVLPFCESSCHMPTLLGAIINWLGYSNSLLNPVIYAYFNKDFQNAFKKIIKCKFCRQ
In short: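 Membranes from HeLa cells stably expressing human 5-HT1A incubated 30 min at 30 °C with 1 nM [3H]8-OH-DPAT and compound in 50 mM Tris-HCl pH 7.4, 2.5 mM MgCl2, […] pargyline. Nonspecific binding defined with 10 μM 5-HT; filtration readout, IC50 converted to Ki via Cheng–Prusoff.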

Ki | Compound
47.2 nM | O=C(C1CCCCC1)N1c2ccccc2CCC1CN1CCC(c2ccccc2)CC1 (centres unmarked) [Example 72A3, 1-(1-Cyclohexanecarbonyl-1,2,3,4-tetrahydroquinolin-2-ylmethyl)-4-phenylpiperidine]
31.6 nM | O=C(C1CCCCC1)N1c2ccccc2CCC1CN1CCN(c2cccc(Cl)c2Cl)CC1 (centres unmarked) [Example 72A8, 1-(1-Cyclohexanecarbonyl-1,2,3,4-tetrahydroquinolin-2-ylmethyl)-4-(2,3-dichlorophenyl)piperazine]
7.7 nM | CCc1ccccc1N1CCN(CC2CCc3ccccc3N2C(=O)C2CCCCC2)CC1 (centres unmarked) [Example 72A11, 1-(1-Cyclohexanecarbonyl-1,2,3,4-tetrahydroquinolin-2-ylmethyl)-4-(2-ethylphenyl)piperazine]
7.8 nM | N#Cc1ccccc1N1CCN(CC2CCc3ccccc3N2C(=O)C2CCCCC2)CC1 (centres unmarked) [Example 72A13, 1-(2-Cyanophenyl)-4-(1-cyclohexanecarbonyl-1,2,3,4-tetrahydroquinolin-2-ylmethyl)piperazine]
38.5 nM | O=C(C1CCCCC1)N1c2ccccc2CCC1CN1CCN(c2cccc(O)c2)CC1 (centres unmarked) [Example 72A17, 1-(1-Cyclohexanecarbonyl-1,2,3,4-tetrahydroquinolin-2-ylmethyl)-4-(3-hydroxyphenyl)piperazine]
11 nM | O=C(C1CCCCC1)N1c2ccccc2CCC1CN1CCN(c2ccc(F)cc2F)CC1 (centres unmarked) [Example 72A18, 1-(1-Cyclohexanecarbonyl-1,2,3,4-tetrahydroquinolin-2-ylmethyl)-4-(2,4-difluorophenyl)piperazine]
5.4 nM | Cc1cccc(N2CCN(CC3CCc4ccccc4N3C(=O)C3CCCCC3)CC2)n1 (centres unmarked) [Example 72A20, 1-(1-Cyclohexanecarbonyl-1,2,3,4-tetrahydroquinolin-2-ylmethyl)-4-(6-methylpyridin-2-yl)piperazine]
24.6 nM | O=C(C1CCCCC1)N1c2ccccc2CCC1CN1CCN(c2cccc(Cl)c2)CC1 (centres unmarked) [Example 72A23, 1-(3-Chlorophenyl)-4-(1-cyclohexanecarbonyl-1,2,3,4-tetrahydroquinolin-2-ylmethyl)piperazine]
15.3 nM | COc1cccc(N2CCN(CC3CCc4ccccc4N3C(=O)C3CCCCC3)CC2)c1 (centres unmarked) [Example 72A25, 1-(1-Cyclohexanecarbonyl-1,2,3,4-tetrahydroquinolin-2-ylmethyl)-4-(3-methoxyphenyl)piperazine]
19.6 nM | O=C(C1CCCCC1)N1c2ccccc2CCC1CN1CCN(c2ccc(F)cc2)CC1 (centres unmarked) [Example 72A26, 1-(1-Cyclohexanecarbonyl-1,2,3,4-tetrahydroquinolin-2-ylmethyl)-4-(4-fluorophenyl)piperazine]
28.1 nM | Cc1ccc(Cl)cc1N1CCN(CC2CCc3ccccc3N2C(=O)C2CCCCC2)CC1 (centres unmarked) [Example 72A29, 1-(5-Chloro-2-methylphenyl)-4-(1-cyclohexanecarbonyl-1,2,3,4-tetrahydroquinolin-2-ylmethyl)piperazine]
10.9 nM | Cc1cccc(N2CCN(CC3CCc4ccccc4N3C(=O)C3CCCCC3)CC2)c1 (centres unmarked) [Example 72A30, 1-(1-Cyclohexanecarbonyl-1,2,3,4-tetrahydroquinolin-2-ylmethyl)-4-(3-methylphenyl)piperazine]
39.1 nM | O=C(C1CCCCC1)N1c2ccccc2CCC1CN1CCC(c2cccc(F)c2)CC1 (centres unmarked) [Example 72A39, 1-(1-Cyclohexanecarbonyl-1,2,3,4-tetrahydroquinolin-2-ylmethyl)-4-(3-fluorophenyl)piperidine]
19.8 nM | O=C(C1CCCCC1)N1c2ccccc2CCC1CN1CCC(c2ccccc2F)CC1 (centres unmarked) [Example 72A40, 1-(1-Cyclohexanecarbonyl-1,2,3,4-tetrahydroquinolin-2-!ylmethyl)-4-(2-fluorophenyl)piperidine]

The remaining lines, values behind:

Compound | Ki
CC(C)(C)NC(=O)N1c2ccccc2CCC1CN1CCN(c2cccc3[nH]ccc23)CC1 (centres unmarked) [Example 69A12, 1-[1-(1,1-Dimethylethylaminocarbonyl)-1,2,3,4-tetrahydroquinoline-2-ylmethyl]-1-(4-indolyl)piperazine] | 2.1 nM
COc1ccc(NC(=O)N2c3ccccc3CCC2CN2CCN(c3cccc4[nH]ccc34)CC2)cc1 (centres unmarked) [Example 69A13, 1(4-Indolyl)-4-[1-(4-methoxyphenylaminocarbonyl)-1,2,3,4-tetrahydroquinoline-2-ylmethyl]piperazine] | 21.3 nM
Cc1ccccc1NC(=O)N1c2ccccc2CCC1CN1CCN(c2cccc3[nH]ccc23)CC1 (centres unmarked) [Example 69A, 1-(4-Indolyl)-4-[1-(2-methylphenylaminocarbonyl)-1,2,3,4-tetrahydroquinoline-2-ylmethyl]piperazine] | 7.3 nM
O=S(=O)(c1cccs1)N1c2ccccc2CCC1CN1CCN(c2cccc3[nH]ccc23)CC1 (centres unmarked) [Example 70A1, 1-(4-Indolyl)-4-[1-(2-thienylsulphonyl)-1,2,3,4-tetrahydroquinoline-2-ylmethyl]piperazine] | 18.8 nM
COc1ccc(S(=O)(=O)N2c3ccccc3CCC2CN2CCN(c3cccc4[nH]ccc34)CC2)cc1 (centres unmarked) [Example 70A2, 1(4-Indolyl)-4-[1-(4-methoxyphenylsulphonyl)-1,2,3,4-tetrahydroquinoline-2-ylmethyl]piperazine] | 18.8 nM
Cc1ccc(S(=O)(=O)N2c3ccccc3CCC2CN2CCN(c3cccc4[nH]ccc34)CC2)cc1 (centres unmarked) [Example 70A3, 1(4-Indolyl)-4-[1-(4-methylphenylsulphonyl)-1,2,3,4-tetrahydroquinoline-2-ylmethyl]piperazine] | 15.2 nM
O=S(=O)(c1ccc(F)cc1)N1c2ccccc2CCC1CN1CCN(c2cccc3[nH]ccc23)CC1 (centres unmarked) [Example 70A4, 1-[1-(4-Fluorophenylsulphonyl)-1,2,3,4-tetrahydroquinoline-2-ylmethyl]-4-(4-indolyl)piperazine] | 20.9 nM
N#Cc1ccc(S(=O)(=O)N2c3ccccc3CCC2CN2CCN(c3cccc4[nH]ccc34)CC2)cc1 (centres unmarked) [Example 70A5, 1-[1-(4-Cyanophenylsulphonyl)-1,2,3,4-tetrahydroquinoline-2-ylmethyl]-4-(4-indolyl)piperazine] | 40.3 nM
O=S(=O)(Cc1ccccc1)N1c2ccccc2CCC1CN1CCN(c2cccc3[nH]ccc23)CC1 (centres unmarked) [Example 70A6, 1-(4-Indolyl)-4-(1-phenylmethylsulphonyl-1,2,3,4-tetrahydroquinoline-2-ylmethyl)piperazine] | 4.7 nM
O=S(=O)(c1ccccc1)N1c2ccccc2CCC1CN1CCN(c2cccc3[nH]ccc23)CC1 (centres unmarked) [Example 70A, 1-(4-Indolyl)-1-[1-phenylsulphonyl-1,2,3,4-tetrahydroquinoline-2-ylmethyl]piperazine] | 7.8 nM
CC(C)(C)OC(=O)NCCC(=O)N1c2ccccc2CCC1CN1CCN(c2cccc3[nH]ccc23)CC1 (centres unmarked) [Example 71A1, 1-[1-(3-tert-Butoxycarbonylamino)propionyl-1,2,3,4-tetrahydroquinoline-2-ylmethyl]-4-(4-indolyl)piperazine] | 15.2 nM
CC(C)(C)OC(=O)n1cc(CC(=O)N2c3ccccc3CCC2CN2CCN(c3cccc4[nH]ccc34)CC2)c2ccccc21 (centres unmarked) [Example 71A2, 1-[1-[2-(1-tert-Butoxycarbonylindol-3-yl)acetyl]-1,2,3,4-tetrahydroquinoline-2-ylmethyl]-4-(4-indolyl]piperazine] | 92 nM
CC(C)(C)OC(=O)N1CCC(C(=O)N2c3ccccc3CCC2CN2CCN(c3cccc4[nH]ccc34)CC2)CC1 (centres unmarked) [Example 71A3, 1-[1-[4-(1-tert-Butoxycarbonylpiperidino)carbonyl]-1,2,3,4-tetrahydroquinoline-2-ylmethyl]-4-(4-indolyl)piperazine] | 40.6 nM
CC(C)(C)OC(=O)N1CCC[C@@H]1C(=O)N1c2ccccc2CCC1CN1CCN(c2cccc3[nH]ccc23)CC1 (stereo partly drawn) [Example 71A4, 1-[1-(1-tert-Butoxycarbonyl-(2R)-pyrrolidin-2yl)carbonyl-1,2,3,4-tetrahydroquinoline-2-ylmethyl]-4-(4-indolyl)piperazine] | 45.9 nM
CC(C)(C)OC(=O)N1CCC[C@H]1C(=O)N1c2ccccc2CCC1CN1CCN(c2cccc3[nH]ccc23)CC1 (stereo partly drawn) [Example 71A5, 1-[1-(1-tert-Butoxycarbonyl-(2S)-pyrrolidin-2yl)carbonyl-1,2,3,4-tetrahydroquinoline-2-ylmethyl]-4-(4-indolyl)piperazine] | 45 nM
CC(C)(C)OC(=O)NCC(=O)N1c2ccccc2CCC1CN1CCN(c2cccc3[nH]ccc23)CC1 (centres unmarked) [Example 71A, 1-[1-(2-tert-Butoxycarbonylamino)acetyl-1,2,3,4-tetrahydroquinoline-2-ylmethyl]-4-(4-indolyl)piperazine] | 35.7 nM
O=C(C1CCCCC1)N1c2ccccc2CCC1CN1CCN(c2ncccc2C(F)(F)F)CC1 (centres unmarked) [Example 72A6, 1-(1-Cyclohexanecarbonyl-1,2,3,4-tetrahydroquinolin-2-ylmethyl)-4-(3-trifluoromethylpyridin-2-yl)piperazine] | 3.2 nM
O=C(C1CCCCC1)N1c2ccccc2CCC1CN1CCN(c2ccc(F)cc2[N+](=O)[O-])CC1 (centres unmarked) [Example 72A7, 1-(1-Cyclohexanecarbonyl-1,2,3,4-tetrahydroquinolin-2-ylmethyl)-4-(4-fluoro-2-nitrophenyl)piperazine] | 4.6 nM
